We go through 24 compounds from patent US20140005163A1 (NOVARTIS AG, priority 2010, published 2014).

One experiment has as its target T1, mTOR (Homo sapiens, UniProt P42345).
T1 construct: purchased Invitrogen Corporation (Carlsbad/CA, USA) PV4753
As to the kind of experiment: Biochemical assay for m-TOR by TR-FRET. Particulars: 8 μM ATP, 400 nM GFP-4EBP1, 0.5 nM mTOR. Put shortly: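 mTOR (0.5 nM) was incubated at rt with ATP (8 μM final) and GFP-4EBP1 (400 nM final) in 50 mM HEPES pH 7.5, 10 mM MnCl2, 50 mM NaCl, 1 mM EGTA, 1 mM DTT. EDTA stop with Tb3+-anti-p4EBP1 [pThr46] antibody (0.5 nM); TR-FRET read 15 min later.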
On the technique in general: In TR-FRET formats the signal depends on donor and acceptor labels being close together.

The next experiment has as its target T2, PI3K delta (Homo sapiens, UniProt O00329).
T2 construct: for the full-length p110-d subunit are generated and fused by overlapping PCR; p85(iSH2) fusion partner (see partner chain) (N); His tag (C); made in house; host or cells: baculovirus; Tn5 (Trichoplusia ni) or TiniPro insect cells
Kind of experiment: PI3K delta kinase assay (Kinase-Glo luminescence). In kind it is biochemical. The essentials:
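ATP 1 μM, PI 10 μg/mL, PI3Kδ construct BV1060 10 nM (final); 10 mM Tris pH 7.5, 3 mM MgCl2, 50 mM NaCl, 0.05% CHAPS, 1 mM DTT; 60 min RT; Kinase-Glo stop, luminescence.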
On the technique in general: Kinase-Glo reads ATP consumption through a luciferase reaction.

T2 sequence (O00329 with tags, fused parts or gaps limits assumed): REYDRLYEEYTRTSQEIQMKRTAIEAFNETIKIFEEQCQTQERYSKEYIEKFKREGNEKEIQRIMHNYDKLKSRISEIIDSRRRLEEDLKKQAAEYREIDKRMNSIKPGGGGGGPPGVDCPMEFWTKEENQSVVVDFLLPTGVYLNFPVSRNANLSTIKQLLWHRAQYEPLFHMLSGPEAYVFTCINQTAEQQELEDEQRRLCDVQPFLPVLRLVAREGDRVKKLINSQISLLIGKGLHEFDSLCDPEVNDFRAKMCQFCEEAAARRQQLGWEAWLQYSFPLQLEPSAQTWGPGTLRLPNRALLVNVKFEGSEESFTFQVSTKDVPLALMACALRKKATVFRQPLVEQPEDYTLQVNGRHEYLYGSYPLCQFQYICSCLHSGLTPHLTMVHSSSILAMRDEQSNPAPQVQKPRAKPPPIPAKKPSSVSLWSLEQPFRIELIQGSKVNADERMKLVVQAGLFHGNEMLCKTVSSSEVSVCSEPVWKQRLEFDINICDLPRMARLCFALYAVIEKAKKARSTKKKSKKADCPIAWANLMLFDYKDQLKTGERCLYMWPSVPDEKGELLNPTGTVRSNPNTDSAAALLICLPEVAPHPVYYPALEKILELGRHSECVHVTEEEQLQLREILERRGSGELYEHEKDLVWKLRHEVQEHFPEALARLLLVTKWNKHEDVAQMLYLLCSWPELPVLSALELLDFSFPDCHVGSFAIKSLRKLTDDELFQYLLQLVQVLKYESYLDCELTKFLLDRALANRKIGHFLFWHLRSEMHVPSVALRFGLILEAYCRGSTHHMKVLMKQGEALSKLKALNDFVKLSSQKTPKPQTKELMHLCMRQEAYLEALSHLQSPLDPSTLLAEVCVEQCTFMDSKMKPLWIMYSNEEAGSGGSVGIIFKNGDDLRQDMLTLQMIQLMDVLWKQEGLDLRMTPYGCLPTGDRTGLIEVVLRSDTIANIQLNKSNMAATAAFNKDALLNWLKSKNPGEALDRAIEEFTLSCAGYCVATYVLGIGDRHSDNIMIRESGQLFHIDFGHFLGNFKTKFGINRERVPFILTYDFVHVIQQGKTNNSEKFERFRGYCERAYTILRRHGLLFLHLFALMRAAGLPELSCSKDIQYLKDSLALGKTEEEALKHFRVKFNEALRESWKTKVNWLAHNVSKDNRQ
T1 sequence (P42345 1360-2549 limits assumed): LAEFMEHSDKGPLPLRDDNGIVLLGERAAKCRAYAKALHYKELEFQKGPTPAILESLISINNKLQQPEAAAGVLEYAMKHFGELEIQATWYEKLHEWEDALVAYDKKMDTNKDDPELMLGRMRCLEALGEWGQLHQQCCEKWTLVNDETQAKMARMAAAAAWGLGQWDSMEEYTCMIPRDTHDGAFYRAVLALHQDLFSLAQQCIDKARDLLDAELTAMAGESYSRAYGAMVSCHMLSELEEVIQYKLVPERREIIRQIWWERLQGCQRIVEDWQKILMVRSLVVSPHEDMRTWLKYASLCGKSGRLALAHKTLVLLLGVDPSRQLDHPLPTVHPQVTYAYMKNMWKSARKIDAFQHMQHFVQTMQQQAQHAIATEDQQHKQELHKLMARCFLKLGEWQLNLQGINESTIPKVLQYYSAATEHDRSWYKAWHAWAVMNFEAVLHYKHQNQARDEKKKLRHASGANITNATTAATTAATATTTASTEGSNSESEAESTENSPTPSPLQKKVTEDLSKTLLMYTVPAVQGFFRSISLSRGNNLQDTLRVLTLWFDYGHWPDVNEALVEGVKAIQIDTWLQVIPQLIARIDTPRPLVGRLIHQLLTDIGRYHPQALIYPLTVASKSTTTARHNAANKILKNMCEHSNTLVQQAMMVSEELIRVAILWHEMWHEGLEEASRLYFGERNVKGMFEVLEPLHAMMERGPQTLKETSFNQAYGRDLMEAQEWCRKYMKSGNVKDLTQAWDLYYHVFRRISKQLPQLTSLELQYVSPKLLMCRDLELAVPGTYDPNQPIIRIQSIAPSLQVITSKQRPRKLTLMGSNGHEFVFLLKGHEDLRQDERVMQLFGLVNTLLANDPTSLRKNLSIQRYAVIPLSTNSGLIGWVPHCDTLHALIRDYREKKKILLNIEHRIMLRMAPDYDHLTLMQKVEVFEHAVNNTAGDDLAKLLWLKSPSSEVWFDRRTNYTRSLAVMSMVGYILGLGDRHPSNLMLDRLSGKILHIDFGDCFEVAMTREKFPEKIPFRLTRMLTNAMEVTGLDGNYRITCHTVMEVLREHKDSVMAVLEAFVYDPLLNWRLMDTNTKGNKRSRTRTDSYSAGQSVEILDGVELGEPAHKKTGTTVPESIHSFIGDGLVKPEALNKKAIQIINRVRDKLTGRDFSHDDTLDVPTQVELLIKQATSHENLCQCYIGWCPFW

Take `Cc1nn(C)c(C)c1-n1c(=O)n(C)c2cnc3ccc(-c4cnc(N)c(Cl)c4)cc3c21` [Example 148.1, 8-(6-Amino-5-chloro-pyridin-3-yl)-3-methyl-1-(1,3,5-trimethyl-1H-pyrazol-4-yl)-1,3-dihydro-imidazo[4,5-c]quinolin-2-one]: the IC50 on mTOR turned out to be 95 nM; on PI3K delta, 21 nM.

In the case of `Cc1nn(C)cc1-n1c(=O)n(C)c2cnc3ccc(-c4cnc(N)c(Cl)c4)cc3c21` [Example 148.2, 8-(6-Amino-5-chloro-pyridin-3-yl)-1-(1,3-dimethyl-1H-pyrazol-4-yl)-3-methyl-1,3-dihydro-imidazo[4,5-c]quinolin-2-one], the results for the IC50 at mTOR and on PI3K delta were 9 nM and 39 nM, respectively.

Consider `CCNc1cc(-c2ccc3ncc4c(c3c2)n(-c2cn(C)nc2C)c(=O)n4C)cnc1CO` [Example 155.1, 1-(1,3-Dimethyl-1H-pyrazol-4-yl)-8-(5-ethylamino-6-hydroxymethyl-pyridin-3-yl)-3-methyl-1,3-dihydro-imidazo[4,5-c]quinolin-2-one], for which the values for the IC50 on mTOR and at PI3K delta were 3 nM and 14 nM, respectively.

Take `CNc1cc(-c2ccc3ncc4c(c3c2)n(-c2cn(C(C)C)nc2C)c(=O)n4C)cnc1CO` [Example 158.2, 8-(6-Hydroxymethyl-5-methylamino-pyridin-3-yl)-1-(1-isopropyl-3-methyl-1H-pyrazol-4-yl)-3-methyl-1,3-dihydro-imidazo[4,5-c]quinolin-2-one]: the results for the half-maximal inhibitory concentration (IC50) at mTOR and at PI3K delta were 4 nM and 8 nM, respectively.

For `CNc1cc(-c2ccc3ncc4c(c3c2)n(-c2cn(C)nc2Cl)c(=O)n4C)cnc1CO` [Example 158.3, 1-(3-Chloro-1-methyl-1H-pyrazol-4-yl)-8-(6-hydroxymethyl-5-methylamino-pyridin-3-yl)-3-methyl-1,3-dihydro-imidazo[4,5-c]quinolin-2-one], the values for the IC50 on mTOR and on PI3K delta were 12 nM and 4 nM, respectively.

Turning to `CNc1cc(-c2ccc3ncc4c(c3c2)n(-c2cn(C)nc2C)c(=O)n4C)cnc1C` [Example 163, 1-(1,3-Dimethyl-1H-pyrazol-4-yl)-3-methyl-8-(6-methyl-5-methylamino-pyridin-3-yl)-1,3-dihydro-imidazo[4,5-c]quinolin-2-one], the IC50 was < 3 nM on mTOR and 5 nM on PI3K delta.

Take `CCN(C)c1cc(-c2ccc3ncc4c(c3c2)n(-c2cn(C)nc2C)c(=O)n4C)cnc1C` [Example 165, 1-(1,3-Dimethyl-1H-pyrazol-4-yl)-8-[5-(ethyl-methyl-amino)-6-methyl-pyridin-3-yl]-3-methyl-1,3-dihydro-imidazo[4,5-c]quinolin-2-one]: the concentration for half-maximal inhibition (IC50) at mTOR was < 3 nM; on PI3K delta, 4 nM.

As for `Cc1nn(C(C)C)cc1-n1c(=O)n(C)c2cnc3ccc(-c4cnc(N)c(CO)c4)cc3c21` [Example 169.1, 8-(6-Amino-5-hydroxymethyl-pyridin-3-yl)-1-(1-isopropyl-3-methyl-1H-pyrazol-4-yl)-3-methyl-1,3-dihydro-imidazo[4,5-c]quinolin-2-one], the IC50 on mTOR is < 3 nM; at PI3K delta it was 22 nM.

In the case of `Cc1nn(C)c(C)c1-n1c(=O)n(C)c2cnc3ccc(-c4cnc(N)c(CO)c4)cc3c21` [Example 169.2, 8-(6-Amino-5-hydroxymethyl-pyridin-3-yl)-3-methyl-1-(1,3,5-trimethyl-1H-pyrazol-4-yl)-1,3-dihydro-imidazo[4,5-c]quinolin-2-one], the results for the IC50 at mTOR and at PI3K delta were 149 nM and 27 nM, respectively.

For `Cc1nn(C)cc1-n1c(=O)n(C)c2cnc3ccc(-c4cncc(NC5CCC5)c4)cc3c21` [Example 172, 8-(5-Cyclobutylamino-pyridin-3-yl)-1-(1,3-dimethyl-1H-pyrazol-4-yl)-3-methyl-1,3-dihydro-imidazo[4,5-c]quinolin-2-one], the concentration for half-maximal inhibition (IC50) on mTOR was < 3 nM; at PI3K delta, 33 nM.

With `Cc1nn(C)cc1-n1c(=O)n(C)c2cnc3ccc(-c4cncc(N(C)C(C)C)c4)cc3c21` [Example 173, 1-(1,3-Dimethyl-1H-pyrazol-4-yl)-8-[5-(isopropyl-methyl-amino)-pyridin-3-yl]-3-methyl-1,3-dihydro-imidazo[4,5-c]quinolin-2-one], the 50% inhibitory concentration (IC50) turned out to be 4 nM at mTOR and 37 nM at PI3K delta.

`Cc1nn(C)cc1-n1c(=O)n(C)c2cnc3ccc(-c4cncc(N(C)C)c4)cc3c21` [Example 178, 8-(5-Dimethylamino-pyridin-3-yl)-1-(1,3-dimethyl-1H-pyrazol-4-yl)-3-methyl-1,3-dihydro-imidazo[4,5-c]quinolin-2-one]: the values for the IC50 on mTOR and at PI3K delta were 15 nM and 85 nM, respectively.

Take `CNc1cncc(-c2ccc3ncc4c(c3c2)n(-c2cn(C(C)C)nc2C)c(=O)n4C)c1` [Example 180.2, 1-(1-Isopropyl-3-methyl-1H-pyrazol-4-yl)-3-methyl-8-(5-methylamino-pyridin-3-yl)-1,3-dihydro-imidazo[4,5-c]quinolin-2-one]: the 50% inhibitory concentration (IC50) is < 3 nM on mTOR and 6 nM on PI3K delta.

`CCOc1cc(-c2ccc3ncc4c(c3c2)n(-c2cn(C)nc2C)c(=O)n4C)cnc1CC` [Example 187, 1-(1,3-Dimethyl-1H-pyrazol-4-yl)-8-(5-ethoxy-6-ethyl-pyridin-3-yl)-3-methyl-1,3-dihydro-imidazo[4,5-c]quinolin-2-one]: the half-inhibitory concentration (IC50) on mTOR and on PI3K delta was 8 nM in each case.

Take `CCc1ncc(-c2ccc3ncc4c(c3c2)n(-c2cn(C)nc2C)c(=O)n4C)cc1O` [Example 188, 1-(1,3-Dimethyl-1H-pyrazol-4-yl)-8-(6-ethyl-5-hydroxy-pyridin-3-yl)-3-methyl-1,3-dihydro-imidazo[4,5-c]quinolin-2-one]: the IC50 is < 3 nM on mTOR and 4 nM on PI3K delta.

Turning to `CCn1cc(-n2c(=O)n(C)c3cnc4ccc(-c5cnc(COC)c(OC(C)C)c5)cc4c32)c(C)n1` [Example 191.2, 1-(1-Ethyl-3-methyl-1H-pyrazol-4-yl)-8-(5-isopropoxy-6-methoxymethyl-pyridin-3-yl)-3-methyl-1,3-dihydro-imidazo[4,5-c]quinolin-2-one], the values for the 50% inhibitory concentration (IC50) at mTOR and on PI3K delta were 34 nM and 11 nM, respectively.

`Cc1nn(C)cc1-n1c(=O)n(C)c2cnc3ccc(-c4cnc(CO)c(OC(CF)CF)c4)cc3c21` [Example 192, 1-(1,3-Dimethyl-1H-pyrazol-4-yl)-8-[5-(2-fluoro-1-fluoromethyl-ethoxy)-6-hydroxymethyl-pyridin-3-yl]-3-methyl-1,3-dihydro-imidazo[4,5-c]quinolin-2-one]: the 50% inhibitory concentration (IC50) on mTOR was 6 nM; at PI3K delta, 5 nM.

For the compound `CCOCc1ncc(-c2ccc3ncc4c(c3c2)n(-c2cn(C)nc2C)c(=O)n4C)cc1OC` [Example 196.2, 1-(1,3-Dimethyl-1H-pyrazol-4-yl)-8-(6-ethoxymethyl-5-methoxy-pyridin-3-yl)-3-methyl-1,3-dihydro-imidazo[4,5-c]quinolin-2-one], the half-inhibitory concentration (IC50) was determined as 193 nM on mTOR and 160 nM at PI3K delta.

Turning to `CCOc1cc(-c2ccc3ncc4c(c3c2)n(-c2cn(C(C)C)nc2C)c(=O)n4C)cnc1COC` [Example 197.2, 8-(5-Ethoxy-6-methoxymethyl-pyridin-3-yl)-1-(1-isopropyl-3-methyl-1H-pyrazol-4-yl)-3-methyl-1,3-dihydro-imidazo[4,5-c]quinolin-2-one], the half-maximal inhibitory concentration (IC50) on mTOR worked out at 107 nM; at PI3K delta, 24 nM.

For `COCc1ccc(-c2ccc3ncc4c(c3c2)n(-c2cn(C)nc2Cl)c(=O)n4C)cn1` [Example 203, 1-(3-Chloro-1-methyl-1H-pyrazol-4-yl)-8-(6-methoxymethyl-pyridin-3-yl)-3-methyl-1,3-dihydro-imidazo[4,5-c]quinolin-2-one], the 50% inhibitory concentration (IC50) on mTOR was 15 nM; at PI3K delta it was 8 nM.

`CCNc1ncc(-c2ccc3ncc4c(c3c2)n(-c2cn(C)nc2C)c(=O)n4C)cc1COC` [Example 206.1, 1-(1,3-Dimethyl-1H-pyrazol-4-yl)-8-(6-ethylamino-5-methoxymethyl-pyridin-3-yl)-3-methyl-1,3-dihydro-imidazo[4,5-c]quinolin-2-one]: the results for the 50% inhibitory concentration (IC50) at mTOR and at PI3K delta were 34 nM and 7 nM, respectively.

As to `CCc1ncc(-c2ccc3ncc4c(c3c2)n(-c2cn(C)nc2C)c(=O)n4C)cc1N` [Example 208, 8-(5-Amino-6-ethyl-pyridin-3-yl)-1-(1,3-dimethyl-1H-pyrazol-4-yl)-3-methyl-1,3-dihydro-imidazo[4,5-c]quinolin-2-one], the values for the half-maximal inhibitory concentration (IC50) at mTOR and on PI3K delta were 7 nM and 6 nM, respectively.

With `CO[C@@H]1CCN(c2ccc(-c3ccc4ncc5c(c4c3)n(-c3cn(C)nc3C)c(=O)n5C)cn2)C1` [Example 213.1, 1-(1,3-Dimethyl-1H-pyrazol-4-yl)-8-[6-((R)-3-methoxy-pyrrolidin-1-yl)-pyridin-3-yl]-3-methyl-1,3-dihydro-imidazo[4,5-c]quinolin-2-one], the figures for the IC50 at mTOR and at PI3K delta were 373 nM and 691 nM, respectively.

Take `Cn1cc(-n2c(=O)n(C)c3cnc4ccc(-c5cncc(C(C)(C)C#N)c5)cc4c32)c(Cl)n1` [Example 220.3, 2-{5-[1-(3-Chloro-1-methyl-1H-pyrazol-4-yl)-3-methyl-2-oxo-2,3-dihydro-1H-imidazo[4,5-c]quinolin-8-yl]-pyridin-3-yl}-2-methyl-propionitrile]: the IC50 at mTOR worked out at 5 nM; on PI3K delta it was 3 nM.

One may read the IC50 as the concentration that inhibits the measured activity by half.
